Measurements as given in ChEMBL document CHEMBL1142734, “Biological properties of D- and L-1-deoxyazasugars” (J Med Chem, 2005).

Legend:
[1] = molecular target: T1, Tissue alpha-L-fucosidase (Bos taurus) (UniProt Q2KIM0); conditions: 1000 uM
T1 sequence (whole entry): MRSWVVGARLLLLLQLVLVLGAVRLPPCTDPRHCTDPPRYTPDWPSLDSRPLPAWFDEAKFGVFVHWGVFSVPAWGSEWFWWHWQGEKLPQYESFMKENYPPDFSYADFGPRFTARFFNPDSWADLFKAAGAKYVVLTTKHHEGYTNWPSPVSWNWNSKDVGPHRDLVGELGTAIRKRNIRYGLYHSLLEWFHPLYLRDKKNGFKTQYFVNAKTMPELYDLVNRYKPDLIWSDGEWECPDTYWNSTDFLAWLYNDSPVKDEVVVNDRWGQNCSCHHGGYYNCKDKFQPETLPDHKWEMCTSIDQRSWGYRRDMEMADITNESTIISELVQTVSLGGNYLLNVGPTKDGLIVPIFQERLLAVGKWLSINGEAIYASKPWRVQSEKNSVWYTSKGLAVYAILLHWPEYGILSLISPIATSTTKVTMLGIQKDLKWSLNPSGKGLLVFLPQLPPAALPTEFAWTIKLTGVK

[2] = molecular target: Alpha-galactosidase (Coffea arabica) (UniProt Q5DUH8); conditions: 1000 uM
Alpha-galactosidase (Coffea arabica), sequence (Q5DUH8 as listed by the source): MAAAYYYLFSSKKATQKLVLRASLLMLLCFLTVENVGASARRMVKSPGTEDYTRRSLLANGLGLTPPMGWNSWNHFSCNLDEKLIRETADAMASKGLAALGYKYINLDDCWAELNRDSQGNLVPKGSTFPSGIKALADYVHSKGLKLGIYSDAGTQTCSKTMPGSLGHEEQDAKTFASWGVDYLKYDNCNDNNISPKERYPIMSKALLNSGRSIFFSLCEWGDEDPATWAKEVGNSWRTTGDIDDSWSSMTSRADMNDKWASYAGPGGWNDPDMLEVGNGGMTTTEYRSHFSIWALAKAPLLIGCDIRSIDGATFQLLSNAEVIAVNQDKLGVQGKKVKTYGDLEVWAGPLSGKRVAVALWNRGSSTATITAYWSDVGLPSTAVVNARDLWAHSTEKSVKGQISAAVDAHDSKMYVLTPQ

[3] = molecular target: T2, Beta-galactosidase (Rattus norvegicus) (UniProt D3ZUM4); assay: Percent inhibition of beta-galactosidase of rat epididymis at 1000 uM
T2 sequence (whole entry): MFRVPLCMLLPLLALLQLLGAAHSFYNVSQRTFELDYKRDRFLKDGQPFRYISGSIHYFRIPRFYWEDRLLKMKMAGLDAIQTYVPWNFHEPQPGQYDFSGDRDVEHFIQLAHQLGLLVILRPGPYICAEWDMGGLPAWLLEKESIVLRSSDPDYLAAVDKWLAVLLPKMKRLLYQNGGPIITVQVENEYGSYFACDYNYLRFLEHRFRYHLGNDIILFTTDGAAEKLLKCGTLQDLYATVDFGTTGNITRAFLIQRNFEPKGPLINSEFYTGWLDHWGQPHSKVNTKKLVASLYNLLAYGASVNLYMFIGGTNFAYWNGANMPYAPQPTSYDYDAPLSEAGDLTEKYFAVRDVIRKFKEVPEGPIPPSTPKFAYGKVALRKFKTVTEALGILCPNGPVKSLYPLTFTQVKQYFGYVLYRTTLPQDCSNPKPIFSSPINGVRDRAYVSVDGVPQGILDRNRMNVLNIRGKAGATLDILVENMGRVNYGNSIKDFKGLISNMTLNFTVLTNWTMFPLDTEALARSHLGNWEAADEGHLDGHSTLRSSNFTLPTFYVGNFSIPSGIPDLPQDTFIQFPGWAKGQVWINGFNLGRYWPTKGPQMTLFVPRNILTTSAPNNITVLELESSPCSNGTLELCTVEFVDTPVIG

[4] = molecular target: T2, Beta-galactosidase (Rattus norvegicus); assay: Percent inhibition of beta galactosidase of rat epididymis at 1000 uM
[5] = molecular target: T3, Cytosolic beta-glucosidase (Homo sapiens, UniProt Q9H227); assay: Inhibitory concentration against human beta-glucosidase
T3 sequence (Q9H227 whole entry): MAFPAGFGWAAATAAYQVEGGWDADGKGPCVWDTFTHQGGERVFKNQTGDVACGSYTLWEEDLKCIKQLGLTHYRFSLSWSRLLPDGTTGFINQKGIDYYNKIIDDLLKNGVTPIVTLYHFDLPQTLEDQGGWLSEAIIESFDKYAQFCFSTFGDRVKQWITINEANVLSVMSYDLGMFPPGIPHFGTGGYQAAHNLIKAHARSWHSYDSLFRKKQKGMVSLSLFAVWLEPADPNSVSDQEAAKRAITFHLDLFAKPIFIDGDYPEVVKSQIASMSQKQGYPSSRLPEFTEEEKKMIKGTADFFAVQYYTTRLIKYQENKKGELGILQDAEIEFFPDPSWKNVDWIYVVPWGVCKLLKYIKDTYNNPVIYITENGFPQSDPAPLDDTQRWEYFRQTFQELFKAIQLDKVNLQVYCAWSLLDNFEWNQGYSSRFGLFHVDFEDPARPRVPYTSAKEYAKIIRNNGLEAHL

[6] = molecular target: T3, Cytosolic beta-glucosidase; assay: Inhibitory concentration against beta-glucosidase
[7] = molecular target: T4, Tissue alpha-L-fucosidase (Bos taurus, UniProt Q2KIM0); assay: Ki value against bovine alpha-L-fucosidase
T4 sequence (Q2KIM0 whole entry): T1 sequence (whole entry)

[8] = molecular target: T4, Tissue alpha-L-fucosidase; assay: Inhibitory concentration against bovine alpha-L-fucosidase
[9] = molecular target: T4, Tissue alpha-L-fucosidase; assay: Inhibitory concentration against alpha-L-fucosidase of bovine epididymis
[10] = molecular target: T5, Alpha-galactosidase C (Aspergillus niger, UniProt Q9UUZ4); assay: Inhibitory concentration against alpha-galactosidase of Aspergillus niger
T5 sequence (Q9UUZ4 whole entry): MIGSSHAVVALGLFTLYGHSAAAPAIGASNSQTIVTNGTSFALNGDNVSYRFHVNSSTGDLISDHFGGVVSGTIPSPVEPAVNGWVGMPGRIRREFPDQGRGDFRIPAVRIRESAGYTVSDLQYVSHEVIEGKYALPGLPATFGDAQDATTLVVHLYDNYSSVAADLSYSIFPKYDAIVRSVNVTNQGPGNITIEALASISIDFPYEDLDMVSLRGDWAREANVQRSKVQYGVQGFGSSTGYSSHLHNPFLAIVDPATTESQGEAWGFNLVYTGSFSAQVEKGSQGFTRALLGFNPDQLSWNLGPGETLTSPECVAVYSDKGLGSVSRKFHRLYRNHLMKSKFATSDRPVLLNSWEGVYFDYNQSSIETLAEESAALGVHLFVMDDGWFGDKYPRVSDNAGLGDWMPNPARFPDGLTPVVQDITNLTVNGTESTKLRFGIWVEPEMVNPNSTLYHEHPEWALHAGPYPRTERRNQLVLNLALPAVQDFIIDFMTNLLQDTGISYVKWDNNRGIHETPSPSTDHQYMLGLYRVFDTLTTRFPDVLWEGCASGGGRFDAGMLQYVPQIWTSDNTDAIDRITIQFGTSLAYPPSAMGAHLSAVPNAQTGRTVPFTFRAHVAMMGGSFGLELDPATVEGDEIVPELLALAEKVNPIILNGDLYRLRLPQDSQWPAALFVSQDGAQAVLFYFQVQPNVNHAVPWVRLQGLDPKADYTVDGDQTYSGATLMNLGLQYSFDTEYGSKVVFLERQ

| Compound | inhibition [1] [%] | inhibition [2] [%] | inhibition [3] [%] | other results |
| --- | --- | --- | --- | --- |
| OC[C@@H]1NC[C@H](O)[C@@H](O)[C@@H]1O | < 50 | < 50 | < 50 | – |
| OC[C@H]1NC[C@H](O)[C@H](O)[C@@H]1O | < 50 | – | < 50 | – |
| OC[C@H]1NC[C@H](O)[C@@H](O)[C@@H]1O [DUVOGLUSTAT] | – | – | – | inhibition [4]: < 50%; IC50 [5]: 240 µM; IC50 [6]: 80 µM |
| OC[C@@H]1NC[C@@H](O)[C@H](O)[C@H]1O | < 50 | < 50 | – | inhibition [4]: < 50%; IC50 [6]: 980 µM |
| OC[C@@H]1NC[C@@H](O)[C@H](O)[C@@H]1O | – | – | – | Ki [7]: 0.08 µM; IC50 [8]: 0.63 µM |
| OC[C@H]1NC[C@@H](O)[C@@H](O)[C@@H]1O [DEOXYMANNOJIRIMYCIN] | – | < 50 | < 50 | IC50 [9]: 39 µM; Ki [7]: 4.7 µM |
| OC[C@H]1NC[C@H](O)[C@@H](O)[C@H]1O | < 50 | – | – | IC50 [10]: 1.8 µM |
| OC[C@@H]1NC[C@@H](O)[C@@H](O)[C@@H]1O | – | < 50 | < 50 | IC50 [9]: 156 µM; Ki [7]: 14 µM |

The next lines start with results.

| inhibition [1] [%] | inhibition [2] [%] | inhibition [3] [%] | Compound | other results |
| --- | --- | --- | --- | --- |
| < 50 | < 50 | < 50 | OC[C@@H]1NC[C@H](O)[C@H](O)[C@H]1O | – |
| < 50 | – | < 50 | OC[C@H]1NC[C@@H](O)[C@H](O)[C@H]1O | IC50 [5]: 66 µM; IC50 [6]: 60 µM |
| < 50 | – | < 50 | OC[C@H]1NC[C@H](O)[C@H](O)[C@H]1O | – |
| < 50 | – | < 50 | OC[C@@H]1NC[C@@H](O)[C@@H](O)[C@H]1O | – |
